Results as given in patent US5015578A, “BMY-41950 antitumor antibiotic” (Bristol-Myers Squibb Company, priority 1990, dated 1991).
≈ marks a conversion by molar mass, not a printed value.

Experiments:
[1] = tested on: lymphocytic leukemia P388 cells; experiment: In vivo activity in P388 murine leukemia model; set-up: species or system murine (female CDF1 mice); settings: days 1-5
Procedure: (§1) BMY-41950 was tested for in vitro cytotoxic activity against a murine and a human tumor cell line. In vivo it was tested for activity against a murine leukemia tumor model. In vitro, mitomycin C and cisplatin were used as the reference compounds, while etoposide (VP-16) was used as the in vivo reference.
In vivo activity of BMY-41950 was determined in a murine leukemia tumor system. Female CDF1 mice were intraperitoneally inoculated with 0.5 ml of diluted ascitic fluid containing 10^6 lymphocytic leukemia P388 cells. Ten mice were untreated and the median survival time of this group was 10 days. Three groups of 4 mice each were treated with BMY-41950 on days 1, 2, 3, 4 and 5 post tumor implant. The drug was administered ip after being initially dissolved in DMSO, Tween 80 and buffered saline. […] Thus the % T/C (survival time of drug treated/survival time of untreated controls×100) was 130%. The criteria for antitumor activity in this murine tumor test is a % T/C of 125 or greater. Thus. BMY-41950 fulfilled the criteria for antitumor activity in the P388 murine leukemia antitumor model.

[2] = tested on: HCT-116 (human colon cancer cell clone); experiment: In vitro cytotoxicity, HCT-116 cells (crystal violet); format: cell-based; settings: 72 hours, 50% cell death or growth inhibition; for IC50: Homo sapiens, HCT-116, read-out: In Vitro Antitumor Activity IC50, HCT-116
Procedure: as §1
(§2) B16-F10 (murine melanoma) and HCT-116 (human colon cancer cell clone) cells were cultured in Complete McCoys Media. The media consists of 420 ml McCoys 5A media plus 500 mg sodium bicarbonate in 6 ml water, 6.56 mg L-serine. 1.5 mg L-asparagine and 82.4 mg sodium pyruvate in 2 ml water. 6.25 ml essential amino acids (50X, Gibco), 3.0 ml non-essential amino acids (100X, Gibco), 3 ml L-glutamine (200MM), 3 ml MEM vitamins (Gibco), 6.25 ml penicillin/streptomycin (Gibco) and 50 ml of heat-inactivated defined fetal calf serum.
(§3) The two cell lines are harvested during logarithmic phase cell growth and 3600 cells in 150 microliter media were placed in each well of a 96 well microtiter plate. After 24 hours incubation at 37 degrees Celsius in a 95% air/5% carbon dioxide humidified incubator to allow the cells to attach to the plate, fifty microliters of sample/reference drug is added to 11 of 12 of the top row of wells while 50 microliters of media is added to the 12th. The drugs/media are serially diluted (4 fold dilutions) down the 8 wells of the plate. The cells in the presence of drug/media are then incubated for 72 hours. After fixing with 10% formalin, cells killed by the drug were washed off the plate while those surviving cells are stained with 0.0075% crystal violet. After drying, the stain is solubilized with 10% ethanol and 1% acetic acid, the developed plate quantitated on a Dynatech MR 600 plate reader and the IC50 values (drug concentration at which 50% cell death or growth inhibition occurs) calculated.

[3] = tested on: B16-F10 (murine melanoma); experiment: In vitro cytotoxicity, B16-F10 cells (crystal violet); format: cell-based; settings: 72 hours, 50% cell death or growth inhibition; for IC50: Mus musculus, B16-F10, read-out: In Vitro Antitumor Activity IC50, B16-F10
Procedure: as §1, §2, §3

[4] = tested on: Enterococcus faecalis A20688; experiment: MIC vs. Enterococcus faecalis A20688, in vitro antimicrobial screening; format: cell-based; settings: read-out: MIC (Minimum Inhibitory Concentration)
[5] = Solubility; format: physicochemical
[6] = tested on: Staphylococcus aureus A9537; experiment: MIC vs. Staphylococcus aureus A9537, in vitro antimicrobial screening; format: cell-based; settings: read-out: MIC (Minimum Inhibitory Concentration)

SMILES	% T/C (survival time of drug treated/survival time of untreated controls×100) ([1]; 2 mg/kg/day ip, criterion for activity 125 or greater)	median survival time ([1]; 2 mg/kg/day ip, untreated controls 10 days)	drug-induced toxicity / deaths ([1]; 18 and 6 mg/kg/day ip)	IC50 [2]	IC50 [3]	MIC [4]	Solubility in CHCl3-CH3OH ([5]; CHCl3-CH3OH (2:1 v/v))	Solubility in dimethylsulfoxide (DMSO) ([5]; dimethylsulfoxide (DMSO))	Solubility in tetrahydrofuran (THF) ([5]; tetrahydrofuran (THF))	MIC [6]	In Vitro Antitumor Activity IC50, HCT-116 [2]	In Vitro Antitumor Activity IC50, B16-F10 [3]
CNC1CC2OC(C)(C1OC)n1c3ccccc3c3c4c(c5c6ccccc6n2c5c31)C(=O)NC4=O (centres unmarked) [BMY-41950, 7-oxostaurosporine]	130%	13 days	suffered drug-induced toxicity and all mice died prior to day 7	0.24 µg/mL (≈ 0.499 µM)	0.98 µg/mL (≈ 2.04 µM)	12.5 µg/mL (≈ 26 µM)	soluble	soluble	soluble	6.25 µg/mL (≈ 13 µM)	–	–
CO[C@@]12[C@H](COC(N)=O)C3=C(C(=O)C(C)=C(N)C3=O)N1C[C@@H]1N[C@@H]12 [Mitomycin C]	–	–	–	0.98 µg/mL (≈ 2.93 µM)	0.98 µg/mL (≈ 2.93 µM)	–	–	–	–	–	–	–
N.N.[Cl][Pt][Cl] [Cisplatin]	–	–	–	–	–	–	–	–	–	–	15.6 µg/mL	3.9 µg/mL
